Laboratory results from patent US20050009005A1, “Methods of using quantitative lipid metabolome data” (Lipomics Technologies, Inc., priority 2001, published 2005).

Test system: de novo fatty acid synthesis
Test: Lipid metabolite profile of plasma, heart, liver and inguinal adipose of CL316,243-treated mice (trial 2; Tables 7 and 8)
Assay type: in vivo
Details: for 14:0 / 16:0 / 16:1n7 / 18:0 / 18:1n7 / 18:1n9 / Saturates / Total / Total n7 / Total n9 / Total nMole of FA: mean
Excerpt: It is understood that the described methods can be used to analyze lipid metabolites from other subjects, including particularly animals other than mice.
Mouse tissue and plasma samples were a generous donation to Lipomics Technologies, Inc., from Dr. Edward Leiter of the Jackson Laboratory (Bar Harbor, Me.). Samples included the plasma, heart, liver and inguinal adipose of mice treated with pharmaceuticals or their corresponding controls.
In trial 2, male, inbred NON mice were fed a control with or without the presence of the β-3 adrenergic agonist CL316,243 for four weeks (at 0.001% CL316,243 by weight in the dietary chow).
In both studies, five treated and five control mice were used. Following the treatments and the killing of the mice, tissues and plasma were taken, chilled to −80 ° C. and shipped to the analysis laboratory at Lipomics Technologies in a frozen state.
Tissue processing and lipid extraction, including provision of internal standards, was carried out essentially as described in Watkins et al. (J. Lipid Res. Papers in Press, 10.1184/jlf.M200169-JLF200, published August 16, 2002), and in co-owned international application PCT/US02/21426, entitled “GENERATING, VIEWING, INTERPRETING, AND UTILIZING A QUANTITATIVE DATABASE OF METABOLITES,” both of which are incorporated in their entirety herein by reference.
The separation of lipid classes was performed in some instance by preparative thin-layer chromatography (TLC). To remove any residual metal or other damaging contaminants on the TLC plates, each plate was washed prior to use. Washing the plates is a three-step process that involves impregnating each plate with ethylenediamine tetraacetic acid (EDTA) and rinsing the plates once with methanol and once with chloroform. Each plate is first impregnated with 1 mM EDTA, pH 5.5, by ascending development using the method of Ruiz (J. Lipid Res. 38, 1482-1489, 1997). After each plate was completely developed, it was dried in air overnight. Once dry, each plate was developed in methanol, dried, and developed in chloroform in the same direction as the development with EDTA. The washed plates were then dried in air. Just prior to use, each plate was activated by heating to 110° C. for 10 minutes.
To prepare the TLC chamber for chromatography, Whatman (Clifton, N.J.) filter paper was cut into 20×80-cm strips and wrapped around the inside wall of a 30×60×10-cm glass development chamber. One hundred milliliters of the appropriate mobile phase was added to the chamber, and the chambers were sealed and allowed to equilibrate. Chambers were considered equilibrated when the solvent front had completely ascended the filter paper. The mobile phase employed for the separation of phospholipid classes (lyso-phospholipids, sphingomyelin, phosphatidylcholine, phosphatidylserine, phosphatidylethanolamine and cardiolipin) was a modification of the solvent system described by Holub and Skeaf (“Nutritional regulation of cellular phosphatidylinositol,” in Methods in Enzymology, ed. Conn, P. M. (Academic Press, Inc., Orlando), pp. 234-243, 1987) consisting of chloroform/methanol/acetic acid/water (100:67:7:4, by volume).
For the separation of neutral lipid classes (free fatty acids, free sterols, triacylglycerides and cholesterol esters), a solvent system consisting of petroleum ether/diethyl ether/acetic acid (80:20:1, by volume) was used (Mangold, Thin Layer Chromatography—A Laboratory Handbook (Springer-Verlag, New York), 1969).
After the TLC plate was activated, the sample extracts were spotted onto the activated plate. As a general rule, samples were spotted at an estimated concentration such that no single lipid class was present at more than 25 jig per centimeter of plate width following chromatography. This ensured that the plate was not overloaded and minimized the risk of cross-contamination between lipid classes (cross-contamination is readily identified during sample analysis as each lipid class contains unique internal standards). […]

C[C@H](Cc1ccc2c(c1)OC(C(=O)[O-])(C(=O)[O-])O2)NC[C@H](O)c1cccc(Cl)c1.[Na+].[Na+] [CL316,243]
14:0 (Adipose, CE): 65.2 nanomoles per gram
16:0 (Adipose, CE): 326.2 nanomoles per gram
16:1n7 (Adipose, CE): 85.7 nanomoles per gram
18:0 (Adipose, CE): 72.1 nanomoles per gram
18:1n7 (Adipose, CE): 50.6 nanomoles per gram
18:1n9 (Adipose, CE): 344.4 nanomoles per gram
14:0 (Adipose, FFA): 833.3 nanomoles per gram
16:0 (Adipose, FFA): 6822.9 nanomoles per gram
16:1n7 (Adipose, FFA): 2652.0 nanomoles per gram
18:0 (Adipose, FFA): 1467.5 nanomoles per gram
18:1n7 (Adipose, FFA): 864.3 nanomoles per gram
18:1n9 (Adipose, FFA): 9845.4 nanomoles per gram
14:0 (Adipose, PL): 74.4 nanomoles per gram
16:0 (Adipose, PL): 1403.3 nanomoles per gram
16:1n7 (Adipose, PL): 291.2 nanomoles per gram
18:0 (Adipose, PL): 1249.1 nanomoles per gram
18:1n7 (Adipose, PL): 118.1 nanomoles per gram
18:1n9 (Adipose, PL): 794.7 nanomoles per gram
14:0 (Adipose, TAG): 79501.6 nanomoles per gram
16:0 (Adipose, TAG): 666399.1 nanomoles per gram
16:1n7 (Adipose, TAG): 265948.0 nanomoles per gram
18:0 (Adipose, TAG): 73800.5 nanomoles per gram
18:1n7 (Adipose, TAG): 49837.1 nanomoles per gram
18:1n9 (Adipose, TAG): 793227.6 nanomoles per gram
14:0 (Adipose, lipid class CE): 4.5 percentage of total fatty acids
16:0 (Adipose, lipid class CE): 24.4 percentage of total fatty acids
16:1n7 (Adipose, lipid class CE): 6.8 percentage of total fatty acids
18:0 (Adipose, lipid class CE): 5.1 percentage of total fatty acids
18:1n7 (Adipose, lipid class CE): 3.5 percentage of total fatty acids
18:1n9 (Adipose, lipid class CE): 26.2 percentage of total fatty acids
Saturates (Adipose, lipid class CE): 35.7 percentage of total fatty acids
Total (Adipose, lipid class CE): 100.0 percentage of total fatty acids
Total n7 (Adipose, lipid class CE): 10.3 percentage of total fatty acids
Total n9 (Adipose, lipid class CE): 28.8 percentage of total fatty acids
14:0 (Adipose, lipid class FFA): 2.6 percentage of total fatty acids
16:0 (Adipose, lipid class FFA): 21.7 percentage of total fatty acids
16:1n7 (Adipose, lipid class FFA): 9.2 percentage of total fatty acids
18:0 (Adipose, lipid class FFA): 6.8 percentage of total fatty acids
18:1n7 (Adipose, lipid class FFA): 2.8 percentage of total fatty acids
18:1n9 (Adipose, lipid class FFA): 30.7 percentage of total fatty acids
Saturates (Adipose, lipid class FFA): 31.8 percentage of total fatty acids
Total (Adipose, lipid class FFA): 100.0 percentage of total fatty acids
Total n7 (Adipose, lipid class FFA): 12.0 percentage of total fatty acids
Total n9 (Adipose, lipid class FFA): 31.5 percentage of total fatty acids
14:0 (Adipose, lipid class PL): 1.4 percentage of total fatty acids
16:0 (Adipose, lipid class PL): 19.9 percentage of total fatty acids
16:1n7 (Adipose, lipid class PL): 5.5 percentage of total fatty acids
18:0 (Adipose, lipid class PL): 16.1 percentage of total fatty acids
18:1n7 (Adipose, lipid class PL): 1.9 percentage of total fatty acids
18:1n9 (Adipose, lipid class PL): 14.6 percentage of total fatty acids
Saturates (Adipose, lipid class PL): 39.0 percentage of total fatty acids
Total (Adipose, lipid class PL): 100.0 percentage of total fatty acids
Total n7 (Adipose, lipid class PL): 7.4 percentage of total fatty acids
Total n9 (Adipose, lipid class PL): 15.3 percentage of total fatty acids
14:0 (Adipose, lipid class TAG): 3.3 percentage of total fatty acids
16:0 (Adipose, lipid class TAG): 26.9 percentage of total fatty acids
16:1n7 (Adipose, lipid class TAG): 10.8 percentage of total fatty acids
18:0 (Adipose, lipid class TAG): 2.9 percentage of total fatty acids
18:1n7 (Adipose, lipid class TAG): 2.0 percentage of total fatty acids
18:1n9 (Adipose, lipid class TAG): 31.9 percentage of total fatty acids
Saturates (Adipose, lipid class TAG): 33.3 percentage of total fatty acids
Total (Adipose, lipid class TAG): 100.0 percentage of total fatty acids
Total n7 (Adipose, lipid class TAG): 12.9 percentage of total fatty acids
Total n9 (Adipose, lipid class TAG): 32.2 percentage of total fatty acids
lipid concentrations in plasma (CL316,243 4 weeks vs controls): decreased
lipid synthesis in tissues (CL316,243 4 weeks vs controls (Table 7)): decreased
vaccenic acid concentrations in these lipid classes (CL316,243 4 weeks vs controls, heart, liver, adipose, plasma): typically decreased
14:0 (Heart, CE): 59.3 nanomoles per gram
16:0 (Heart, CE): 187.4 nanomoles per gram
16:1n7 (Heart, CE): 36.2 nanomoles per gram
18:0 (Heart, CE): 85.3 nanomoles per gram
18:1n7 (Heart, CE): 19.6 nanomoles per gram
18:1n9 (Heart, CE): 389.5 nanomoles per gram
Saturates (Heart, CE): 366.8 nanomoles per gram
Total n7 (Heart, CE): 55.8 nanomoles per gram
Total n9 (Heart, CE): 405.7 nanomoles per gram
Total nMole of FA (Heart, CE): 1226.9 nanomoles per gram
14:0 (Heart, CL): 76.3 nanomoles per gram
16:0 (Heart, CL): 231.1 nanomoles per gram
16:1n7 (Heart, CL): 204.0 nanomoles per gram
18:0 (Heart, CL): 397.1 nanomoles per gram
18:1n7 (Heart, CL): 381.8 nanomoles per gram
18:1n9 (Heart, CL): 956.2 nanomoles per gram
Saturates (Heart, CL): 776.3 nanomoles per gram
Total n7 (Heart, CL): 585.8 nanomoles per gram
Total n9 (Heart, CL): 1011.4 nanomoles per gram
Total nMole of FA (Heart, CL): 2975.1 nanomoles per gram
14:0 (Heart, FFA): 181.4 nanomoles per gram
16:0 (Heart, FFA): 1012.4 nanomoles per gram
16:1n7 (Heart, FFA): 156.8 nanomoles per gram
18:0 (Heart, FFA): 427.8 nanomoles per gram
18:1n7 (Heart, FFA): 139.4 nanomoles per gram
18:1n9 (Heart, FFA): 1964.0 nanomoles per gram
Saturates (Heart, FFA): 1683.2 nanomoles per gram
Total n7 (Heart, FFA): 296.1 nanomoles per gram
Total n9 (Heart, FFA): 2017.6 nanomoles per gram
Total nMole of FA (Heart, FFA): 6044.8 nanomoles per gram
14:0 (Heart, PC): 94.6 nanomoles per gram
16:0 (Heart, PC): 8127.9 nanomoles per gram
16:1n7 (Heart, PC): 108.7 nanomoles per gram
18:0 (Heart, PC): 5235.9 nanomoles per gram
18:1n7 (Heart, PC): 568.2 nanomoles per gram
18:1n9 (Heart, PC): 1990.2 nanomoles per gram
Saturates (Heart, PC): 13577.6 nanomoles per gram
Total n7 (Heart, PC): 676.9 nanomoles per gram
Total n9 (Heart, PC): 2052.1 nanomoles per gram
Total nMole of FA (Heart, PC): 15087.3 nanomoles per gram
14:0 (Heart, PE): 27.5 nanomoles per gram
16:0 (Heart, PE): 1814.0 nanomoles per gram
16:1n7 (Heart, PE): 59.6 nanomoles per gram
18:0 (Heart, PE): 5241.4 nanomoles per gram
18:1n7 (Heart, PE): 250.5 nanomoles per gram
18:1n9 (Heart, PE): 934.9 nanomoles per gram
14:0 (Heart, PL): 170.5 nanomoles per gram
16:0 (Heart, PL): 10799.7 nanomoles per gram
16:1n7 (Heart, PL): 344.7 nanomoles per gram
18:0 (Heart, PL): 13320.8 nanomoles per gram
18:1n7 (Heart, PL): 1181.0 nanomoles per gram
18:1n9 (Heart, PL): 4121.5 nanomoles per gram
14:0 (Heart, PS/I): 33.4 nanomoles per gram
